Measurements as given in PubChem BioAssay AID288 (DTP/NCI, 2004).
Values joined by “and” are separate entries in the source; they are usually repeats but may differ in a detail not shown here. Equal values may be shown once. Records with an inconclusive call do not appear.

Tested on: BDF1 mice, M5076 sarcoma s.c., survival/tumor T/C
Test: NCI In Vivo Anticancer Drug Screen. Data for tumor model Sarcoma M5076 (subcutaneous) in B6D2F1 (BDF1) mice
Experimental: The antitumor activity of compounds was measured in mice bearing transplantable tumors. Survival or tumor size were measured and the results are expressed as the measurement made in the treated group (T) divided by the measurement made in the vehicle treated control group (C). The tumor model used in this assay is Sarcoma M5076 (subcutaneous) in B6D2F1 (BDF1) mice

With `CC1(CO)C(O)CCC2(C)C1CCC1CC3CC12CCC3(O)CO` (stereo unspecified) the T/C (endpoint: median survival time, dose: 23.3 mg/kg/injection, schedule: Q01DX017 (sc), vehicle: Klucel (hydroxypropylcellulose) (HPC), higher = longer survival) was 93 % of control, the T/C (endpoint: median survival time, dose: 38.9 mg/kg/injection, schedule: Q01DX017 (oral), vehicle: Klucel (hydroxypropylcellulose) (HPC), higher = longer survival) was 93 % of control and the T/C (endpoint: median survival time, dose: 64.8 mg/kg/injection, schedule: Q01DX017 (ip), vehicle: Klucel (hydroxypropylcellulose) (HPC), higher = longer survival) was 124 % of control. The T/C (endpoint: median survival time, dose: 64.8 mg/kg/injection, schedule: Q01DX017 (oral), vehicle: Klucel (hydroxypropylcellulose) (HPC), higher = longer survival) was 102 % of control and 109 % of control, the T/C (endpoint: median survival time, dose: 64.8 mg/kg/injection, schedule: Q01DX017 (sc), vehicle: Klucel (hydroxypropylcellulose) (HPC), higher = longer survival) was 163 % of control and the T/C (endpoint: median survival time, dose: 77.8 mg/kg/injection, schedule: Q04DX005 (ip), vehicle: Klucel (hydroxypropylcellulose) (HPC), higher = longer survival) was 103 % of control. The T/C (endpoint: median survival time, dose: 83.7 mg/kg/injection, schedule: Q01DX017 (oral), vehicle: Klucel (hydroxypropylcellulose) (HPC), higher = longer survival) was 116 % of control, the T/C (endpoint: median survival time, dose: 100.0 mg/kg/injection, schedule: Q03HX003 (sc), vehicle: Klucel (hydroxypropylcellulose) (HPC), higher = longer survival) was 106 % of control and the T/C (endpoint: median survival time, dose: 100.0 mg/kg/injection, schedule: Q03HX003 (sc), vehicle: saline, higher = longer survival) was 102 % of control. The T/C (endpoint: median survival time, dose: 108.0 mg/kg/injection, schedule: Q01DX017 (ip), vehicle: Klucel (hydroxypropylcellulose) (HPC), higher = longer survival) was 116 % of control, the T/C (endpoint: median survival time, dose: 108.0 mg/kg/injection, schedule: Q01DX017 (oral), vehicle: Klucel (hydroxypropylcellulose) (HPC), higher = longer survival) was 100 % of control and 118 % of control and the T/C (endpoint: median survival time, dose: 108.0 mg/kg/injection, schedule: Q01DX017 (sc), vehicle: Klucel (hydroxypropylcellulose) (HPC), higher = longer survival) was 113 % of control and 121 % of control. The T/C (endpoint: median survival time, dose: 130.0 mg/kg/injection, schedule: Q04DX005 (ip), vehicle: Klucel (hydroxypropylcellulose) (HPC), higher = longer survival) was 103 % of control, the T/C (endpoint: median survival time, dose: 139.0 mg/kg/injection, schedule: Q01DX017 (oral), vehicle: Klucel (hydroxypropylcellulose) (HPC), higher = longer survival) was 118 % of control and the T/C (endpoint: median survival time, dose: 180.0 mg/kg/injection, schedule: Q01DX017 (oral), vehicle: Klucel (hydroxypropylcellulose) (HPC), higher = longer survival) was 116 % of control. The T/C (endpoint: median survival time, dose: 200.0 mg/kg/injection, schedule: Q03HX003 (sc), vehicle: Klucel (hydroxypropylcellulose) (HPC), higher = longer survival) was 98 % of control, the T/C (endpoint: median survival time, dose: 200.0 mg/kg/injection, schedule: Q03HX003 (sc), vehicle: saline, higher = longer survival) was 100 % of control and the T/C (endpoint: median survival time, dose: 216.0 mg/kg/injection, schedule: Q04DX005 (ip), vehicle: Klucel (hydroxypropylcellulose) (HPC), higher = longer survival) was 104 % of control. For the same compound, the T/C (endpoint: median survival time, dose: 300.0 mg/kg/injection, schedule: Q01DX017 (oral), vehicle: Klucel (hydroxypropylcellulose) (HPC), higher = longer survival) was 159 % of control, the T/C (endpoint: median survival time, dose: 360.0 mg/kg/injection, schedule: Q04DX005 (ip), vehicle: Klucel (hydroxypropylcellulose) (HPC), higher = longer survival) was 106 % of control and the T/C (endpoint: median survival time, dose: 600.0 mg/kg/injection, schedule: Q04DX005 (ip), vehicle: Klucel (hydroxypropylcellulose) (HPC), higher = longer survival) was 109 % of control.
For `COc1cc(C(C)(C)C)cc(OC)c1C(O)(c1c(OC)cc(C(C)(C)C)cc1OC)c1c(OC)cc(C(C)(C)C)cc1OC`, the T/C (endpoint: median survival time, dose: 50.0 mg/kg/injection, schedule: Q04DX003 (ip), vehicle: saline with Tween-80, higher = longer survival) was 95 % of control and the T/C (endpoint: median survival time, dose: 100.0 mg/kg/injection, schedule: Q04DX003 (ip), vehicle: saline with Tween-80, higher = longer survival) was 102 % of control.
In the case of `NC(=O)c1cc(N2CC2)c([N+](=O)[O-])cc1[N+](=O)[O-]`, the T/C (endpoint: median survival time, dose: 64.0 mg/kg/injection, schedule: Q01DX001 (ip), vehicle: saline, higher = longer survival) is reported as 103 % of control (2×) and 97 % of control, the T/C (endpoint: median survival time, dose: 80.0 mg/kg/injection, schedule: Q01DX001 (ip), vehicle: saline, higher = longer survival) is reported as 95 % of control and the T/C (endpoint: median survival time, dose: 100.0 mg/kg/injection, schedule: Q01DX001 (ip), vehicle: saline, higher = longer survival) is reported as 106 % of control and 110 % of control and 95 % of control.
`CO[C@@]12[C@H](COC(N)=O)C3=C(C(=O)C(C)=C(N)C3=O)N1C[C@@H]1N[C@@H]12` was tested, and the T/C (endpoint: median survival time, dose: 0.38 mg/kg/injection, schedule: Q04DX006 (ip), vehicle: saline, higher = longer survival) was 105 % of control, the T/C (endpoint: median survival time, dose: 0.75 mg/kg/injection, schedule: Q02DX033 (ip), vehicle: saline, higher = longer survival) was 154 % of control and the T/C (endpoint: median survival time, dose: 0.75 mg/kg/injection, schedule: Q04DX006 (ip), vehicle: saline, higher = longer survival) was 103 % of control. The T/C (endpoint: median survival time, dose: 1.5 mg/kg/injection, schedule: Q02DX033 (ip), vehicle: saline, higher = longer survival) was 92 % of control and the T/C (endpoint: median survival time, dose: 3.0 mg/kg/injection, schedule: Q04DX006 (ip), vehicle: saline, higher = longer survival) was 101 % of control.
For `NC1=NC(O)C=C1` (stereo unspecified), the T/C (endpoint: median survival time, dose: 5.0 mg/kg/injection, schedule: Q01DX009 (ip), vehicle: saline, higher = longer survival) was 103 % of control, the T/C (endpoint: median survival time, dose: 10.0 mg/kg/injection, schedule: Q01DX009 (ip), vehicle: saline, higher = longer survival) was 96 % of control and the T/C (endpoint: median survival time, dose: 20.0 mg/kg/injection, schedule: Q01DX009 (ip), vehicle: saline, higher = longer survival) was 94 % of control. For the same compound, the T/C (endpoint: median survival time, dose: 40.0 mg/kg/injection, schedule: Q01DX009 (ip), vehicle: saline, higher = longer survival) was 96 % of control, the T/C (endpoint: median survival time, dose: 80.0 mg/kg/injection, schedule: Q01DX009 (ip), vehicle: saline, higher = longer survival) was 103 % of control and the T/C (endpoint: median tumor weight (est.), dose: 5.0 mg/kg/injection, schedule: Q01DX009 (ip), vehicle: saline, higher = larger tumour) was 115 % of control. For the same compound, the T/C (endpoint: median tumor weight (est.), dose: 10.0 mg/kg/injection, schedule: Q01DX009 (ip), vehicle: saline, higher = larger tumour) was 63 % of control, the T/C (endpoint: median tumor weight (est.), dose: 20.0 mg/kg/injection, schedule: Q01DX009 (ip), vehicle: saline, higher = larger tumour) was 169 % of control and the T/C (endpoint: median tumor weight (est.), dose: 40.0 mg/kg/injection, schedule: Q01DX009 (ip), vehicle: saline, higher = larger tumour) was 96 % of control. The T/C (endpoint: median tumor weight (est.), dose: 80.0 mg/kg/injection, schedule: Q01DX009 (ip), vehicle: saline, higher = larger tumour) was 68 % of control.
